System: Botrytis cinerea strain SAS 56
Assay: Efficacy of pyrimethanil tablets against Botrytis on tomato fruits
Type: in vivo
Conditions: 6 days after inoculation (6 dpi); active applied one day prior to inoculation, 80 μl per hole
Description: • Tablets loaded with pyrimethanil (sample V3.3, 2.1 wt.-%, prepared according to Example 4) • Hydromagnesite tablets unloaded • Fungicide Espiro SC, commercially available from Omya Agro • Pure pyrimethanil powder, commercially available from Pluorochem Ltd • Five plastic trays with lids • Screwdriver • Eppendorf Pipette […] • Tomato fruits (calibration 47-57 mm) • Inoculum: Spore suspension of Botrytis cinerea strain SAS 56 (3×10^5 spores/ml), commercially available from DSMZ collection.
• Treatment 1: Untreated check. • Treatment 2: Tablets loaded with pyrimethanil (sample V3.3, 2.1 wt.-%, prepared according to Example 4) (0.03 gr active/tablet). • Treatment 3: Unloaded hydromagnesite tablet. • Treatment 4: Fungicide Espiro (appl. rate 0.125% (v/v based on the total amount of prepared treatment solution (solution amount: 50 ml, see below), resulting in pyrimethanil active 400 gr/1). • Treatment 5: Pure pyrimethanil active diluted in ethanol of 99% purity.
• Treatment 1: Only inoculum applied • Treatment 2: In 50 ml of water 1 tablet was dissolved. […]
Three days after the inoculation the first symptoms in the untreated check were detected. […]

## Cc1cc(C)nc(Nc2ccccc2)n1 [Pyrimethanil]
  Botrytis spore germination / mycelium growth on tomato fruits: no mycelium was produced

Source: patent US20240041028A1, “DELIVERY SYSTEM FOR PLANT PROTECTION” (Omya International AG, priority 2021, published 2024)
